{
  "source": "patent US20140271885A1",
  "about": "“COPOLYMERS FOR STABLE MICELLE FORMULATIONS” (Intezyne Technologies, Inc., priority 2013, published 2014)",
  "conditions": "rat, in vivo, iv, 10 mg/kg",
  "protocol": "The delivery vehicle for drug administration was isotonic saline. Rat blood was collected from the catheter into K2-EDTA tubes […] at time points of 1, minute, 5 minutes, 15 minutes, 1 hour, 4 hours, 8 hours and 24 hours. Plasma was isolated by centrifugation at 1000 RPM for 5 minutes, and 150 uL of extraction solution (ice cold methanol/100 ng/mL daunorubicin internal standard) was added to 50 uL of each plasma sample. Samples were then vortexed for 10 minutes, centrifuged at 13,000 RPM for 10 minutes, and 150 uL of the supernatant is transferred to HPLC vials for analysis. […] A 5 μL sample injection was made onto a Waters 4 μm Nova Pak C18 (3.9×150 mm) at 30° C. with a flow rate of 0.750 mL per minute of 10 mM phosphate buffer (pH=1.4), methanol and acetonitrile (gradient from 70/10/20 to 40/10/50 for buffer/methanol/acetonitrile was made over eight minutes).",
  "data": [
    {"molecule": "COc1cccc2c1C(=O)c1c(O)c3c(c(O)c1C2=O)C[C@@](O)(C(C)=O)C[C@@H]3O[C@H]1C[C@H](N)[C@H](O)[C@H](C)O1", "note": "[Free Daunorubicin, daunorubicin]", "values": [
      {"measurement": "AUC (area under the concentration versus time curve, exposure of daunorubicin to the plasma compartment)", "value": 1300, "unit": "ng·h/mL"},
      {"measurement": "Half-life (terminal, elimination)", "value": 3.3, "unit": "h"}
    ]}
  ]
}
